Source: patent publication US6686361B2, “R-6-hydroxy-buspirone” (Bristol-Myers Squibb Company, priority 2001, dated 2004)

What was measured:
[1] = test system: rat pup ultrasonic vocalizations; assay: Rat pup isolation-induced ultrasonic vocalization test; format: in vivo; conditions: rat pups; for anxiolytic activity (ultrasonic vocalizations): 0.3 and 1 mg/kg s.c.
Method: Harlan Sprague-Dawley rat pups (male and female) were housed in polycarbonate cages with the dam until 9-11 days old. Thirty minutes before testing, pups were removed from the dam, placed into a new cage with a small amount of home bedding and brought into the lab and placed under a light to maintain body temperature at 37° C. Pups were then weighed, sexed, marked and returned to the litter group until behavioral assessment. Testing took place in a Plexiglas recording chamber that contained a metal plate maintained at (18-20° C.) with a 5×5 cm grid drawn on the plate. A microphone was suspended 10 cm above the plate to record ultrasonic vocalizations. Ultrasonic calls were recorded using the Noldus UltraVox system providing online analysis of the frequency and duration of calls. The number of grid cells entered by the pup was also collected by visual scoring. […] Immediately following the collection of the baseline measures, pups were injected with vehicle or drug subcutaneously at the nape of the neck and returned to its littermates. Thirty minutes later, pups were retested on each of the dependent measures (vocalization and grid cell crossings) to assess drug effects. Unless otherwise specified, each pup was used only once. Baseline differences and percent change from baseline for the frequency of ultrasonic vocalizations and grid cell crossings were analyzed using a one-way ANOVA. Bonferroni/Dunn post hoc comparisons were performed to assess the acute drug effects with vehicle control. Log-probit analysis was used to estimate the dose (milligrams per kilogram) of each agonist predicted to inhibit isolation-induced ultrasonic vocalizations by 50% (ID50). All comparison were made with an experimental type I error rate (α) set at 0.05.
Doses for each drug were administered in an irregular order across several litters. R-6-hydroxy-buspirone and racemic 6-hydroxy-buspirone were dissolved in physiological saline (0.9% NaCl; vehicle). All injections were administered subcutaneously in a volume of 10 ml/kg. Doses of the drug refer to weight of the salt.

[2] = biological target: D2(h) (Homo sapiens, UniProt P14416); assay: Receptor binding, D2(h)
[3] = biological target: T1, human 5-HT1A receptor (Homo sapiens, UniProt P08908); assay: 5-HT1A receptor binding assay; conditions: human 5-HT1A receptor expressed in HEK293 cells, 3H-8-OH-DPAT
T1 construct: expressed in transfected cells; host or cells: HEK293
T1 sequence (P08908 1-422): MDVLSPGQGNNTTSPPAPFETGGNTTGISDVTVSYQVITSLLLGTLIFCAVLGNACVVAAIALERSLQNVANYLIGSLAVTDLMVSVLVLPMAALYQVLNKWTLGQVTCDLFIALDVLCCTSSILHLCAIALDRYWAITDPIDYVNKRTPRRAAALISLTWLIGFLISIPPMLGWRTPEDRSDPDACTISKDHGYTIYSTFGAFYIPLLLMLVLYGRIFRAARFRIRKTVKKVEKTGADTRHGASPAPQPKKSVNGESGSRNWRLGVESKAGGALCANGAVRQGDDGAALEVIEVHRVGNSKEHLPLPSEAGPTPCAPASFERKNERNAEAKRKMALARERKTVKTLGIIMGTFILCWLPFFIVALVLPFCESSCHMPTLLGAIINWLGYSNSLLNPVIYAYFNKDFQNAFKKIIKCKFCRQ
Method: Membranes are prepared for binding using the human 5-HT1 A receptor expressed in HEK293 cells. Cells are collected and ruptured using a dounce homogenizer. The cells are spun at 18000×g for 10 minutes and the pellet is resuspended in assay buffer, frozen in liquid nitrogen and kept at −80° C. until the day of the assay.
A total of 30 ug protein is used per well. The assay is carried out in 96-deep-well plates. The assay buffer is 50 mM HEPES containing 2.5 mM MgCl2 and 2 mM EGTA. The membrane preparation is incubated at 25° C. for 60 minutes with 0.1 nM to 1000 nM test compound and 1 nM 3H-8-OH-DPAT. […] serotonin serves as blocking agent to determine non-specific binding. The reaction is terminated by the addition of 1 ml of ice cold 50 mM HEPES buffer and rapid filtration through a Brandel Cell Harvester using Whatman GF/B filters. The filter pads are counted in an LKB Trilux liquid scintillation counter. IC50 values are determined using non-linear regression by Excel-fit.

[4] = test system: rat pup ultrasonic vocalizations; conditions: functional testing, background; cited from earlier work
[5] = biological target: T1, human 5-HT1A receptor; conditions: preclinical studies, background; cited from earlier work

Sequence of D2(h) (P14416 whole entry): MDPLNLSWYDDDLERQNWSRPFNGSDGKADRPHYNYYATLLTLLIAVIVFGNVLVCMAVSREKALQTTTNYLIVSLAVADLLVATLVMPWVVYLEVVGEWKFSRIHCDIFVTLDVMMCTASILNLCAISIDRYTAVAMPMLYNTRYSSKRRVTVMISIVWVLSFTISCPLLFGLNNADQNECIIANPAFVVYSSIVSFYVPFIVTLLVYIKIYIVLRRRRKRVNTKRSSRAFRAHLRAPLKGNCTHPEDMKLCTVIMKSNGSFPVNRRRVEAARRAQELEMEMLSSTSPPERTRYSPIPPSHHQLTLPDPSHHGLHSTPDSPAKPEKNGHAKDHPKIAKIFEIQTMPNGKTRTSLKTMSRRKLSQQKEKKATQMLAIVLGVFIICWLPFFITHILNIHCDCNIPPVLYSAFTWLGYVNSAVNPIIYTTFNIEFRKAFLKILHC

| SMILES | anxiolytic activity (ultrasonic vocalizations) [1] | Ki [2] | Ki [3] | anxiolytic response in the rat pup ultrasonic vocalization test [4] | animal movement, measured by crossing grid boundary lines ([1]; compared to animals dosed with the single enantiomer) | affinity for the human 5-HT1A receptor [5] |
| --- | --- | --- | --- | --- | --- | --- |
| O=C1CC2(CCCC2)[C@@H](O)C(=O)N1CCCCN1CCN(c2ncccn2)CC1 [R-6-hydroxy-buspirone] | Statistically significant anxiolytic activity | 2870 nM | 14 nM |  |  |  |
| O=C1CC2(CCCC2)[C@H](O)C(=O)N1CCCCN1CCN(c2ncccn2)CC1 [S-6-hydroxy-buspirone] |  | 1300 nM | 24 nM |  |  |  |
| O=C1CC2(CCCC2)C(O)C(=O)N1CCCCN1CCN(c2ncccn2)CC1 (racemic) [6-hydroxy-buspirone] | Statistically significant anxiolytic activity |  |  | dose-dependent anxiolytic response | appeared to be reduced | strong affinity |
